How the values were obtained:
Type in all cases: in vivo
Plasmopara viticola [1] = assay: Test E: preventive control of grape downy mildew on grape seedlings; details: sprayed day before inoculation, rate not given
Phytophthora infestans [2] = assay: whole plant or invertebrate; details: for Test F disease control rating: 100 g/ha on potato seedlings, sprayed day after inoculation
Plasmopara viticola [3] = assay: Test G: curative control of grape downy mildew on grape seedlings (sprayed after inoculation); details: sprayed day after inoculation, rate not given
[4] = tested on: Erysiphe graminis f. sp. tritici; assay: Test A: preventive control of wheat powdery mildew on wheat seedlings; parameters: concentration or dose not given beside the values; details: sprayed day before inoculation, rated after 7 days, rate not given
Phytophthora infestans [5] = details: tomato (or potato) seedlings, sprayed day before inoculation; rate not given

Compound | Test E disease control rating (Plasmopara viticola [1]) | Test F disease control rating (Phytophthora infestans [2]) | Test G disease control rating (Plasmopara viticola [3]) | Test A disease control rating [4] | Test D disease control rating (Phytophthora infestans [5]) | pest or weed control at 100 g/ha (Phytophthora infestans [2]; Phytophthora infestans, in Solanum tuberosum, 120 h, read-out: Test F disease control rating)
Cc1cc(Cl)c(C(=O)NCc2ncc(Br)cc2Br)c(Cl)n1 [Compound 18] | 100% | 77% | 100% | 0% | 100% | 
O=C(NCc1ncc(Br)cc1Br)c1c(Cl)ccnc1Cl [Compound 17] | 99% | 73% | 98% | 0% | 100% | 
Cc1ccnc(Br)c1C(=O)NC(C)c1ncc(Br)cc1Cl (stereo not shown) [Compound 29] | 100% | 57% | 94% | 0% | 99% | 
Cc1cc(Cl)c(C(=O)NC(C)c2ncc(Cl)cc2Cl)c(Cl)n1 (stereo not shown) [Compound 20, 2,4-Dichloro-N-[1-(3,5-dichloro-2-pyridinyl)ethyl]-6-methyl-3-pyridinecarboxamide] | 100% |  | 100% | 0% | 100% | 53%
Cc1cc(Cl)c(C(=O)NC(C)c2ncc(Br)cc2Br)c(Cl)n1 (stereo not shown) [Compound 32] | 100% | 82% | 99% | 0% | 100% | 
CC(NC(=O)c1c(I)ccnc1F)c1ncc(Br)cc1Cl (stereo not shown) [Compound 33] | 100% | 100% | 100% | 0% | 100% | 
CC(NC(=O)c1c(Br)ccnc1F)c1ncc(Cl)cc1Cl (stereo not shown) [Compound 38] | 100% | 100% | 100% | 0% | 100% | 
COc1cnc(C(C)NC(=O)c2c(Cl)cc(C)nc2Cl)c(Cl)c1 (stereo not shown) [Compound 21] | 100% | 53% | 77% | 0% | 99% | 
CC(NC(=O)c1c(Cl)ccnc1Cl)c1ncc(Cl)cc1Br (stereo not shown) [Compound 34] | 100% | 99% | 100% | 0% | 100% | 
COc1cnc(C(C)NC(=O)c2c(Cl)ccnc2Cl)c(Cl)c1 (stereo not shown) [Compound 22] | 100% | 98% | 94% | 0% | 100% | 
O=C(NCc1ncc(Br)cc1Cl)c1c(I)ccnc1Cl [Compound 24] | 100% | 0% | 84% | 0% | 100% | 
Cc1cc(Cl)c(C(=O)NC(C)c2ncc(Cl)cc2Br)c(Cl)n1 (stereo not shown) [Compound 41] | 100% | 97% | 100% | 0% | 100% | 
CC(NC(=O)c1c(I)ccnc1Cl)c1ncc(Br)cc1Cl (stereo not shown) [Compound 25] | 100% | 0% | 72% | 0% | 100% | 
O=C(NCc1ncc(Cl)cc1Cl)c1c(I)ccnc1Cl [Compound 26] | 81% | 0% | 99% | 0% | 100% | 

Reference: patent publication US20050020643A1, “Pyridinyl amides and compositions thereof for use as fungicides” (priority 2002, published 2005)
